The source of these data is PubChem BioAssay (NCI).

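Cultured in 96-well plates, cells were exposed to test compound for 48 hours across five concentrations. TGI denotes the concentration required for complete inhibition of growth.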

Some test systems named below: 786-0 renal; BT-549 breast; SK-MEL-2 melanoma; CCRF-CEM leukemia; MDA-N; NCI-H23 lung; RPMI-8226 leukemia; EKVX NSCLC; MDA-MB-231 breast; IGROV1 ovarian; T-47D breast.
Holding throughout (test): NCI tumour cell line growth inhibition, 48 h

`S=c1c2cn[nH]c2nc2scc(-c3ccc(Cl)cc3)n12`: the TGI in the test with 786-0 renal is 29.4 µM; in the test with BT-549 breast it was 27.5 µM; in the test on SK-MEL-2 melanoma, 46.6 µM; with CCRF-CEM leukemia, 50.9 µM; in the test on MDA-N, 26.2 µM; in the test on NCI-H23 lung, 30.1 µM. Further, the values for the TGI in the test with RPMI-8226 leukemia, in the test with EKVX NSCLC and in the test with MDA-MB-231 breast were 64.9 µM, 49.1 µM and > 100 µM, respectively.
As for `CCOC(=O)c1c(-c2ccc(O)c(OC)c2)c(C#N)c(=S)n(C2OC(CO)C(O)C(O)C2O)c1-c1ccccc1` (centres undefined), the TGI in the test with 786-0 renal, in the test with IGROV1 ovarian, in the test on CCRF-CEM leukemia, in the test with MDA-N, with NCI-H23 lung and in the test with RPMI-8226 leukemia was > 100 µM throughout. In addition, in the test on EKVX NSCLC, the TGI is > 100 µM.
`O=P(O)(O)C(N=C(Nc1ccccc1)Nc1ccccc1)P(=O)(O)O`: the TGI in the test on 786-0 renal, in the test on BT-549 breast, in the test with IGROV1 ovarian, in the test on MDA-N, in the test on NCI-H23 lung and with EKVX NSCLC was > 100 µM throughout. Also, the TGI with MDA-MB-231 breast is > 100 µM.
Regarding `O=C1NC2c3c(I)sc(I)c3C(O)C2O1` (centres undefined), the TGI in the test with T-47D breast, in the test on 786-0 renal, in the test with IGROV1 ovarian, with SK-MEL-2 melanoma, in the test with CCRF-CEM leukemia and with MDA-N was > 100 µM each time. In addition, the TGI in the test on NCI-H23 lung, in the test with RPMI-8226 leukemia, with EKVX NSCLC and with MDA-MB-231 breast was > 100 µM in each case.
In the case of `CCCNc1ncnc2c1ncn2C`, the TGI with T-47D breast, in the test with 786-0 renal, with IGROV1 ovarian, with SK-MEL-2 melanoma, with CCRF-CEM leukemia and in the test on MDA-N was > 100 µM in each case. For the same compound, the TGI in the test on NCI-H23 lung, in the test with RPMI-8226 leukemia, in the test on EKVX NSCLC and with MDA-MB-231 breast was > 100 µM each time.
Consider `C=C1CC(C#N)(C#N)[C@H]2C3CCCC3C[C@@H]12` (some centres undefined) (tested in a mixture with another compound), for which the TGI is > 100 µM with T-47D breast; 36.9 µM in the test with 786-0 renal; 56.8 µM in the test on BT-549 breast; > 100 µM in the test on IGROV1 ovarian; 98.4 µM in the test on EKVX NSCLC; 55.2 µM with MDA-MB-231 breast.
As to `BrC(=C(c1ccc(OC2CCCCO2)cc1)c1ccc(OC2CCCCO2)cc1)c1ccccc1` (centres undefined), the TGI with T-47D breast, with 786-0 renal, with IGROV1 ovarian, in the test on CCRF-CEM leukemia, in the test on MDA-N and in the test with NCI-H23 lung was > 100 µM each time. Further, the TGI with RPMI-8226 leukemia, with EKVX NSCLC and in the test on MDA-MB-231 breast was > 100 µM in each case.
Regarding `Cn1c(SCc2ccc(F)cc2)nnc1C12CC3CC(CC(C3)C1)C2`, the TGI is > 100 µM in the test on T-47D breast; > 100 µM in the test on 786-0 renal; 78.2 µM in the test on IGROV1 ovarian; > 100 µM with SK-MEL-2 melanoma; 43.3 µM in the test with CCRF-CEM leukemia; > 100 µM with MDA-N. The TGI in the test with NCI-H23 lung is > 100 µM; with RPMI-8226 leukemia it was 82.5 µM; in the test with EKVX NSCLC it was > 100 µM; in the test on MDA-MB-231 breast, 94.5 µM.
For the compound `O=C(O)COc1ccccc1C(=O)Nc1ccccc1`, the TGI in the test with 786-0 renal, in the test on IGROV1 ovarian, in the test on SK-MEL-2 melanoma, with CCRF-CEM leukemia, with NCI-H23 lung and in the test with RPMI-8226 leukemia was > 100 µM throughout. For the same compound, the TGI in the test on EKVX NSCLC was > 100 µM.
Regarding `C=CCn1c(=O)c(C(=O)Nc2nc(C34CC5CC(CC(C5)C3)C4)cs2)c(O)c2ccccc21`, the TGI in the test with 786-0 renal, in the test with BT-549 breast, with IGROV1 ovarian, with CCRF-CEM leukemia, in the test with MDA-N and in the test on NCI-H23 lung was > 100 µM throughout. Also, the TGI in the test with RPMI-8226 leukemia was 87.5 µM; with EKVX NSCLC it was > 100 µM; in the test on MDA-MB-231 breast it was > 100 µM.
As for `O=C(O)c1ccccc1CC(Cc1ccc2c(c1)CCC2)C(=O)O` (centres undefined), the TGI in the test on T-47D breast, with 786-0 renal, in the test on IGROV1 ovarian, with SK-MEL-2 melanoma, with CCRF-CEM leukemia and in the test with MDA-N was > 100 µM each time. Further, the TGI in the test on NCI-H23 lung, in the test with RPMI-8226 leukemia, with EKVX NSCLC and in the test on MDA-MB-231 breast was > 100 µM throughout.
In the case of `COC(C)(C)C1(O)CC[C@@H](C)CC1=O` (some centres undefined), the TGI in the test on 786-0 renal, with BT-549 breast, with IGROV1 ovarian, with MDA-N, with NCI-H23 lung and with RPMI-8226 leukemia was > 100 µM each time. In the test with EKVX NSCLC, the TGI was > 100 µM.
In the case of `Cc1c2n(c(=O)[nH]c1=O)C1OC(CO)C(N=[N+]=[N-])C1O2` (centres undefined), the TGI in the test on 786-0 renal, in the test with IGROV1 ovarian, with SK-MEL-2 melanoma, in the test on CCRF-CEM leukemia, with NCI-H23 lung and with RPMI-8226 leukemia was > 100 µM throughout. The TGI with EKVX NSCLC is > 100 µM.
In the case of `CC1=Cc2cccc(C)c2C(=O)C1=O`, the TGI with 786-0 renal was 6.96 µM; in the test on IGROV1 ovarian, 29.2 µM; in the test on SK-MEL-2 melanoma, 31.9 µM; with NCI-H23 lung, 32.8 µM; in the test on RPMI-8226 leukemia, 4.36 µM; in the test on EKVX NSCLC, 24.5 µM.
In the case of `NS(=O)(=O)c1ccc(NC(=S)/N=C/C2=C(O)c3ccccc3C2=O)cc1`, the TGI in the test on T-47D breast, in the test on 786-0 renal, with IGROV1 ovarian, in the test on SK-MEL-2 melanoma, in the test with CCRF-CEM leukemia and in the test on MDA-N was > 100 µM each time. The TGI in the test with NCI-H23 lung, in the test with RPMI-8226 leukemia, with EKVX NSCLC and in the test with MDA-MB-231 breast was > 100 µM throughout.
With `C=C1C(=O)CC2C1CC(=O)/C(C)=C/CCC(C)(O)C2O` (centres undefined), the TGI was 3.96 µM in the test on T-47D breast; 7.91 µM with 786-0 renal; 20.4 µM in the test with IGROV1 ovarian; 22.9 µM with SK-MEL-2 melanoma; 13.8 µM in the test on CCRF-CEM leukemia; 2.86 µM in the test with MDA-N. The TGI with NCI-H23 lung was 20.6 µM; in the test on RPMI-8226 leukemia it was > 37.9 µM; with EKVX NSCLC it was 34.3 µM; in the test with MDA-MB-231 breast, 25.2 µM.
